Laboratory results as given in patent US20220313677A1, “METHODS FOR TREATING LIVER DISORDERS USING FXR AGONISTS” (Novartis AG, priority 2016, published 2022).
Values after ≈ are worked out from the molar mass of the structure shown. “Also recorded” adds a separate entry of the source.

Experiments:
[1] = tested on: rat ANIT-induced cholestasis model; assay: Chronic treatment rat ANIT model: serum markers of cholestasis and liver damage; type: in vivo; conditions: 14 days oral dosing; AST, ALT, bilirubin, bile acids in serum
Method: Rats were treated with alpha-naphthyl-isothiocyanate (ANIT) (0.1% w/w) in food for 3 days prior to treatment with the compound at the indicated doses or with vehicle control (“Veh”). A non-cholestatic control group was fed standard chow diet without ANIT, and serve as the non-cholestatic control animals (“Control”). After 14 days of oral dosing, the indicated analyte was measured in serum. LLQ, lower limit of quantitation. Mean±SEM; n=5.
(§1) Male Wistar rats were treated with ANIT (0.1% ANIT in chow diet) for 2 weeks. […] The serum samples were collected on day 14 for analysis of biomarkers of hepatobiliary injury (including ALT, AST, bilirubin and bile acids). The PK samples (pre-dose, 0.5, 1, 3, 7, 10 and 24 h, n=3/dose group) were taken on day 13 (at steady-state).

FGF15 = assay: Serum FGF15 (MSD assay) in chronic treatment rat ANIT model; type: in vivo
Method: Serum FGF15 levels were quantified using an FGF15 Meso Scale Discovery (MSD) assay. Mouse FGF15 antibody from R&D Systems (AF6755) was used both as capture and detection antibody in the assay. MSD SULFO-TAG NHS-Ester was used to label the FGF15 antibody. MSD standard 96-well plates were coated with the FGF15 capture antibody and the plates were blocked with MSD Blocker A (R93AA-2). After washing the plate with PBS+0.05% Tween 20, MSD diluent 4 was dispensed into each well and incubated for 30 min. 25 μl of calibrator dilutions or samples (serum or EDTA plasma) were dispensed into each well and incubated with shaking at RT. After washing, detection antibody was added and incubated with shaking for 1 h at RT. After washing and the addition of MSD Read buffer (R92TC-2), the plate was read on an MSD SECTOR Imager 6000. Plots of the standard curve and unknown samples were calculated using MSD data analysis software.
Activation of FXR in the ileum induces the expression of fibroblast growth factor 15 (FGF15 in rodent; FGF19 in human), a hormone that is secreted in the portal blood and signals to the liver to repress Cyp7a1 expression synergistically with SHP. The direct FXR-dependent induction of FGF15/19 along with FGF15/19's anti-cholestatic properties makes it a convenient serum biomarker for detecting target engagement of FXR agonists.

[2] = tested on: rat ANIT-induced cholestasis model; assay: PK/PD modeling of effective exposure in rat ANIT model; type: in vivo; conditions: for IC80 (total bilirubin): 2-week rat ANIT chronic treatment model, serum total bilirubin, Inhibitory effect Imax model
Method: as §1
The mean biomarker data were compared to the PK data (average concentration at each dose) for the modeling. The IC80 was determined using the Inhibitory effect Imax model (effect C=0 at Imax, C=infinity at E0) built in Phoenix WinNonlin 6.3 software. […] Therefore, we chose to use a mean of the IC80 for the four biomarkers (total bilirubin, total bile acids, ALT and AST) as the IC80 for efficacy in this model. From these studies, the IC80 of LJN452 was 0.127 ng/ml and the corresponding AUCO-24h was 3.05 ng*h/ml (Table 1), and the corresponding efficacious dose is approximately 0.01 mg/kg (based on Table 1 and Table 2).
The PK samples (pre-dose, 0.5, 1, 3, 7, 10 and 24 h, n=3/dose group) were taken on day 13 (at steady-state). AUCO-24h was determined using Phoenix WinNonlin 6.3 software and the average concentrations were calculated from mean of AUCO-24h at each dose (divided the AUCO-24h by 24 h). The individual biomarker data were compared to the PK data (average concentration at each dose) for the modeling. Since the lowest dose (0.01 mg/kg) already approached maximal efficacy, the IC80 was chosen as the measurement of the efficacious exposure (Table 1). The IC80 was determined using the Inhibitory effect Imax model (effect C=0 at Imax, C=infinity at E0) built in Phoenix WinNonlin 6.3 software.

[3] = Single oral dose plasma pharmacokinetics in healthy subjects; type: in vivo, human; conditions: fasted, mean
[4] = Safety and tolerability in clinical study; type: in vivo, human
Text: Elevated ALT resolved to within normal levels within 14 days and without intervention.

FGR5 = FGR5 effects
[5] = Estimation of human efficacious dose from rat efficacious exposure and human PK; type: in vivo; conditions: human, plasma, oral; at dose of ~6 μg; read-out: Cmax at estimated human efficacious dose
Method: The human efficacy dose was calculated based on the efficacious exposure in the rat ANIT-induced disease model. Since the in vitro potency and protein binding between human and rat were similar, the EC80 exposure in human was assumed to be the same as that in rat (3.05 ng*h/mL).

[6] = Multiple oral dose plasma pharmacokinetics in healthy subjects
[7] = clinical studies; cited from earlier work
[8] = maximal drug effect, rat ANIT model
[9] = exposures for doses 10-100 μg normalized to 10 μg

## O=C(O)c1cc(F)c2nc(N3C4CC[C@H]3CC(OCc3c(-c5ccccc5OC(F)(F)F)noc3C3CC3)C4)sc2c1 (stereo partly drawn) [Compound A, 2-[(1R,3r,5S)-3-({5-cyclopropyl-3-[2-(trifluoromethoxy)phenyl]-1,2-oxazol-4-yl}methoxy)-8-azabicyclo[3.2.1]octan-8-yl]-4-fluoro-1,3-benzothiazole-6-carboxylic acid]
[1]
  dose from which hepatobiliary injury indicators improved: ≥ 0.01 mg/kg
FGF15
  serum FGF15: stimulated serum FGF15 expression; also recorded: Significant dose-dependent induction
[2]
  IC80 (total bilirubin): 0.223 ng/mL (≈ 0.369 nM)
[2]; listed as LJN452
  IC80 (total bilirubin): 8.223 ng/mL (≈ 13.6 nM)
[2]; [8]
  Imax (ALT): 84.2 U/L
  Imax (AST): 140.3 U/L
  Imax (total bile acids): 125.5 µmol/L
  Imax (total bilirubin): 2.0 mg/dL
[3]; single dose 10 μg
  AUCinf: 3.39 ng·h/mL
  AUClast: 2.79 ng·h/mL
  Cmax: 0.186 ng/mL
  T½: 14.9 h
[3]; single dose 30 μg
  AUCinf: 13.4 ng·h/mL
  AUClast: 12.7 ng·h/mL
  Cmax: 0.627 ng/mL
  T½: 13.7 h
[3]; single dose 100 μg
  AUCinf: 37.9 ng·h/mL
  AUClast: 34.8 ng·h/mL
  Cmax: 1.73 ng/mL
  T½: 13.5 h
[3]; single dose 300 μg
  AUCinf: 123 ng·h/mL
  AUClast: 119 ng·h/mL
  Cmax: 6.41 ng/mL
  T½: 15.3 h
[3]; single dose 1000 μg
  AUCinf: 482 ng·h/mL
  AUClast: 416 ng·h/mL
  Cmax: 22.1 ng/mL
  T½: 21.9 h
[3]; single dose 3000 μg
  AUCinf: 933 ng·h/mL
  AUClast: 888 ng·h/mL
  Cmax: 54.2 ng/mL
  T½: 16.5 h
[4]; 100 μg repeated daily
  ALP or bilirubin elevation: no elevation
[4]; clinical study
  findings in physical exam, vital signs or ECGs: No significant findings
[4]; doses up to and including 60 μg
  tolerability in repeated daily administration: well tolerated
FGR5
  FGR5 effects: no FGR5 effects
[5]
  Cmax: ~0.2 ng/mL
FGF19; 30 μg/day
  FGF19 elevations: consistent with pharmacological activity in NASH
FGF19; single dose studies 10 μg to 1 mg
  FGF19 dose dependence: Dose-dependent increases
[6]; [9]
  average AUCtau at day 13 for a dose level of 10 μg: 4.84 ng·h/mL
  average Cmax at day 13 for a dose level of 10 μg: 0.32 ng/mL
[6]; once daily dosing, dose range 10 μg to 100 μg
  dose proportionality of exposure (Cmax and AUC): approximately dose-proportional increase; also recorded: approximately dose proportional increase
[6]; once daily oral dosing, trough levels
  time by which steady-state was reached: ≤ 4 days

## CC[C@H]1[C@@H](O)[C@@H]2[C@H](CC[C@]3(C)[C@@H]([C@H](C)CCC(=O)O)CC[C@@H]23)[C@@]2(C)CC[C@@H](O)C[C@@H]12 [OCA, 6α-ethyl-chenodeoxycholic acid]
[7]
  pruritus: increased pruritus
